From US10988485B2 (Amgen Inc., priority 2018, dated 2021) come the findings set out here.

For orientation: IC50 means the concentration at which inhibition is half-maximal.

Sequence of GDP-bound KRAS protein (aa 1-169), containing both G12C and C118A amino acid substitutions (P01116 1-169 isoform P01116-2 G12C/C118A): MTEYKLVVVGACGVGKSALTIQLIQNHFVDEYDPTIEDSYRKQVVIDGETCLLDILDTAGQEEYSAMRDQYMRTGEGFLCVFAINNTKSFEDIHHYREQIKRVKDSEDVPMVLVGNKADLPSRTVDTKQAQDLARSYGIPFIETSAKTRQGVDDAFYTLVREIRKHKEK

This experiment addresses GDP-bound KRAS protein (aa 1-169), containing both G12C and C118A amino acid substitutions (Homo sapiens, UniProt P01116, C118A/G12C). Kind of experiment: Coupled Nucleotide Exchange Assay (SOS-mediated nucleotide exchange, AlphaScreen). It counts as biochemical. The settings on record: compound pre-incubation either 5 min or 2 hours (not stated per compound); SOS and GTP added, cRAF AlphaScreen read-out. As to the method: For compounds in Table 6, the following assay conditions were employed:
Coupled Nucleotide Exchange Assay: Purified GDP-bound KRAS protein (aa 1-169), containing both G12C and C118A amino acid substitutions and an N-terminal His-tag, was pre-incubated in assay buffer (25 mM HEPES pH 7.4, 10 mM MgCl2, and 0.01% Triton X-100) with a compound dose-response titration for either 5 min or 2 hours (see Table 15). Following compound pre-incubation, purified SOS protein (aa 564-1049) and GTP (Roche 10106399001) were added to the assay wells and incubated for an additional 30 min (for 5 min compound pre-incubation) or 1 hour (for 2 hour compound pre-incubation). To determine the extent of inhibition of SOS-mediated nucleotide exchange, purified GST-tagged cRAF (aa 1-149), nickel chelate AlphaLISA acceptor beads (PerkinElmer AL108R), and AlphaScreen glutathione donor beads (PerkinElmer 6765302) were added to the assay wells and incubated for 10 minutes. The assay plates were then read on a PerkinElmer EnVision Multilabel Reader, using AlphaScreen® technology, and data were analyzed using a 4-parameter logistic model to calculate IC50 values.
In general terms: Alpha assays give light when donor and acceptor beads are brought close together.
As to `C=CC(=O)N1CCN(C2=NS(=O)(=O)N(c3ccccc3CC(C)C)c3nc(-c4ccccc4F)c(Cl)cc32)[C@@H](C)C1` [Example 3-2, 1-((3S)-4-(6-chloro-7-(2-fluorophenyl)-1-(2-(2-methylpropyl)phenyl)-2,2-dioxido-1H-pyrido[2,3-c][1,2,6]thiadiazin-4-yl)-3-methyl-1-piperazinyl)-2-propen-1-one], the IC50 turned out to be 800 nM. On to `C=CC(=O)N1C[C@H](C)N(C2=NS(=O)(=O)N(c3ccccc3C(C)(C)C)c3nc(-c4ccccc4S(C)(=O)=O)c(Cl)cc32)C[C@H]1C` [Example 1-10], for which the IC50 turned out to be 110 nM.

Take `C=CC(=O)N1C[C@H](C)N(C2=NS(=O)(=O)N(c3c(C)cc(CN(C)C)nc3C(C)C)c3nc(-c4ccccc4F)c(Cl)cc32)C[C@H]1C` [Example 4, 1-((2R,5S)-4-(6-Chloro-1-(6-((dimethylamino)methyl)-4-methyl-2-(2-propanyl)-3-pyridinyl)-7-(2-fluorophenyl)-2,2-dioxido-1H-pyrido[2,3-c][1,2,6]thiadiazin-4-yl)-2,5-dimethyl-1-piperazinyl)-2-propen-1-one]: the IC50 was 5960 nM. As to `C=CC(=O)N1C[C@H](C)N(C2=NS(=O)(=O)N(c3ccccc3C(C)(C)C)c3nc(-c4ccccc4S(C)(=O)=O)c(Cl)cc32)C[C@H]1C` (atropisomer, axis not shown) [Example 1-10-1], the IC50 stood at 80 nM.

Consider `C=CC(=O)N1C[C@H](C)N(C2=NS(=O)(=O)N(c3c(N)ncnc3C(C)C)c3nc(-c4ccccc4F)c(Cl)cc32)C[C@H]1C` (single isomer, unassigned) [Example 9-2], for which the IC50 was 11200 nM.

For the molecule `C=CC(=O)N1C[C@H](C)N(C2=NS(=O)(=O)N(c3ccc(CN(C)C)cc3C(C)(C)C)c3nc(-c4ccccc4F)c(Cl)cc32)C[C@H]1C` [Example 1-13-1, 1-((2R,5S)-4-(6-chloro-1-(4-((dimethylamino)methyl)-2-(2-methyl-2-propanyl)phenyl)-7-(2-fluorophenyl)-2,2-dioxido-1H-pyrido[2,3-c][1,2,6]thiadiazin-4-yl)-2,5-dimethyl-1-piperazinyl)-2-propen-1-one], the IC50 amounted to 40 nM. The figure for `C=CC(=O)N1C[C@H](C)N(C2=NS(=O)(=O)N(c3ccccc3C(C)(C)C)c3nc(-c4c(N)cccc4F)c(Cl)cc32)C[C@H]1C` (single isomer, unassigned) [Example 1-8-1] is 10 nM; for `C=CC(=O)N1C[C@H](C)N(C2=NS(=O)(=O)N(c3c(C)cc(N)nc3C(C)C)c3nc(-c4ccccc4F)c(Cl)cc32)C[C@H]1C` (atropisomer, axis not shown) [Example 10-2, 1-((2R,5S)-4-(1-(6-amino-4-methyl-2-(2-propanyl)-3-pyridinyl)-6-chloro-7-(2-fluorophenyl)-2,2-dioxido-1H-pyrido[2,3-c][1,2,6]thiadiazin-4-yl)-2,5-dimethyl-1-piperazinyl)-2-propen-1-one] it is 390 nM; for `C=CC(=O)N1C[C@H](C)N(C2=NS(=O)(=O)N(c3c(C)ccnc3C(C)C)c3nc(-c4ccccc4C)c(Cl)cc32)C[C@H]1C` [Example 1-12, 1-((2R,5S)-4-(6-chloro-7-(2-methylphenyl)-1-(4-methyl-2-(2-propanyl)-3-pyridinyl)-2,2-dioxido-1H-pyrido[2,3-c][1,2,6]thiadiazin-4-yl)-2,5-dimethyl-1-piperazinyl)-2-propen-1-one] it is 600 nM. The result for `C=CC(=O)N1C[C@H](C)N(C2=NS(=O)(=O)N(c3c(N)ncnc3C(C)C)c3nc(-c4ccccc4F)c(Cl)cc32)C[C@H]1C` (single isomer, unassigned) [Example 9-1] reads 170 nM; that for `C=CC(=O)N1CCN(C2=NS(=O)(=O)N(c3ccccc3C(C)C)c3nc(-c4c(O)cccc4F)c(F)cc32)[C@@H](C)C1` [Example 5, 1-((3S)-4-(6-Fluoro-7-(2-fluoro-6-hydroxyphenyl)-1-(2-isopropylphenyl)-2,2-dioxido-1H-pyrido[2,3-c][1,2,6]thiadiazin-4-yl)-3-methylpiperazin-1-yl)prop-2-en-1-one], 1030 nM. As to `C=CC(=O)N1C[C@H](C)N(C2=NS(=O)(=O)N(c3c(C)cc(CN(C)C)cc3C(C)C)c3nc(-c4c(N)cccc4F)c(Cl)cc32)C[C@H]1C` [Example 8-2, 1-((2R,5S)-4-(7-(2-amino-6-fluorophenyl)-6-chloro-1-(4-((dimethylamino)methyl)-2-methyl-6-(2-propanyl)phenyl)-2,2-dioxido-1H-pyrido[2,3-c][1,2,6]thiadiazin-4-yl)-2,5-dimethyl-1-piperazinyl)-2-propen-1-one], the IC50 was 1460 nM. As for `C=CC(=O)N1C[C@H](C)N(C2=NS(=O)(=O)N(c3ccccc3C(C)(C)C)c3nc(-c4ccccc4F)c(Cl)cc32)C[C@H]1C` [Example 1-1-1, 1-((2R,5S)-4-(6-chloro-7-(2-fluorophenyl)-1-(2-(2-methyl-2-propanyl)phenyl)-2,2-dioxido-1H-pyrido[2,3-c][1,2,6]thiadiazin-4-yl)-2,5-dimethyl-1-piperazinyl)-2-propen-1-one], the IC50 was 150 nM.

Consider `C=CC(=O)N1C[C@H](C)N(C2=NS(=O)(=O)N(c3c(C)cnn3C(C)C)c3nc(-c4ccccc4F)c(Cl)cc32)C[C@H]1C` (single isomer, unassigned) [Example 1-11-1], for which the IC50 was determined as 540 nM. The figure for `C=CC(=O)N1C[C@H](C)N(C2=NS(=O)(=O)N(c3ccc(CN(C)C)cc3C(C)(C)C)c3nc(-c4ccccc4F)c(Cl)cc32)C[C@H]1C` [Example 1-13-2, 1-((2R,5S)-4-(6-chloro-1-(4-((dimethylamino)methyl)-2-(2-methyl-2-propanyl)phenyl)-7-(2-fluorophenyl)-2,2-dioxido-1H-pyrido[2,3-c][1,2,6]thiadiazin-4-yl)-2,5-dimethyl-1-piperazinyl)-2-propen-1-one] is 3870 nM.

Regarding `C=CC(=O)N1C[C@H](C)N(C2=NS(=O)(=O)Nc3nc(-c4ccccc4F)c(Cl)cc32)C[C@H]1C` [Example 7, 1-((2R,5S)-4-(6-Chloro-7-(2-fluorophenyl)-2,2-dioxido-1H-pyrido[2,3-c][1,2,6]thiadiazin-4-yl)-2,5-dimethyl-1-piperazinyl)-2-propen-1-one], the IC50 came out at 16400 nM. For the molecule `C=CC(=O)N1C[C@H](C)N(C2=NS(=O)(=O)N(c3c(C)ccnc3C(C)C)c3nc(-c4ccccc4C)c(Cl)cc32)C[C@H]1C` (single isomer, unassigned) [Example 1-12-2], the IC50 was determined as 3550 nM. For the molecule `C=CC(=O)N1C[C@H](C)N(C2=NS(=O)(=O)N(c3ccccc3C(C)(C)C)c3nc(-c4c(N)cccc4F)c(Cl)cc32)C[C@H]1C` (single isomer, unassigned) [Example 1-8-2], the IC50 worked out at 69300 nM. The figure for `C=CC(=O)N1C[C@H](C)N(C2=NS(=O)(=O)N(c3c(CC)cccc3CC)c3nc(-c4ccccc4F)c(Cl)cc32)C[C@H]1C` [Example 1-6, 1-((2R,5S)-4-(6-chloro-1-(2,6-diethylphenyl)-7-(2-fluorophenyl)-2,2-dioxido-1H-pyrido[2,3-c][1,2,6]thiadiazin-4-yl)-2,5-dimethyl-1-piperazinyl)-2-propen-1-one] is 2690 nM.

As to `C=CC(=O)N1C[C@H](C)N(C2=NS(=O)(=O)N(c3c(C)cc(N)nc3C(C)C)c3nc(-c4ccccc4F)c(Cl)cc32)C[C@H]1C` (atropisomer, axis not shown) [Example 10-1, 1-((2R,5S)-4-(1-(6-amino-4-methyl-2-(2-propanyl)-3-pyridinyl)-6-chloro-7-(2-fluorophenyl)-2,2-dioxido-1H-pyrido[2,3-c][1,2,6]thiadiazin-4-yl)-2,5-dimethyl-1-piperazinyl)-2-propen-1-one], the concentration for half-maximal inhibition (IC50) was determined as 3500 nM. The figure for `C=CC(=O)N1CCN(C2=NS(=O)(=O)N(c3c(C)ccnc3C(C)C)c3nc(-c4ccccc4F)c(Cl)cc32)[C@@H](C)C1` [Example 2-2, (S)-1-(4-(6-chloro-7-(2-fluorophenyl)-1-(2-isopropyl-4-methylpyridin-3-yl)-2,2-dioxido-1H-pyrido[2,3-c][1,2,6]thiadiazin-4-yl)-3-methylpiperazin-1-yl)prop-2-en-1-one] is 530 nM; for `C=CC(=O)N1C[C@H](C)N(C2=NS(=O)(=O)N(c3ccccc3C(C)(C)C)c3nc(-c4ccccc4F)c(Cl)cc32)C[C@H]1C` [Example 1-1-2, 1-((2R,5S)-4-(6-chloro-7-(2-fluorophenyl)-1-(2-(2-methyl-2-propanyl)phenyl)-2,2-dioxido-1H-pyrido[2,3-c][1,2,6]thiadiazin-4-yl)-2,5-dimethyl-1-piperazinyl)-2-propen-1-one] it is 70800 nM; for `C=CC(=O)N1C[C@H](C)N(C2=NS(=O)(=O)N(c3c(C)cc(N)nc3C(C)C)c3nc(-c4ccccc4F)c(Cl)cc32)C[C@H]1C` (atropisomer, axis not shown) [Example 10, 1-((2R,5S)-4-(1-(6-Amino-4-methyl-2-(2-propanyl)-3-pyridinyl)-6-chloro-7-(2-fluorophenyl)-2,2-dioxido-1H-pyrido[2,3-c][1,2,6]thiadiazin-4-yl)-2,5-dimethyl-1-piperazinyl)-2-propen-1-one] it is 1270 nM. Turning to `C=CC(=O)N1C[C@H](C)N(C2=NS(=O)(=O)N(c3ccccc3C(C)(C)C)c3nc(-c4ccccc4S(C)(=O)=O)c(Cl)cc32)C[C@H]1C` (atropisomer, axis not shown) [Example 1-10-2], the IC50 is 5950 nM.
